Where only a bound is given, the exact number is not on record here.

Broadly, the IC50 is the point on the concentration scale where inhibition reaches its midpoint. The low end stands for greater potency, the high end for weaker potency.

In this assay the target is p38 MAP kinase (Homo sapiens, UniProt Q16539). As to the kind of experiment: p38 MAP Kinase Assay (33P incorporation into myelin basic protein, filter plate). Particulars: Table 1; MKK6-activated p38, MBP substrate, 50 minutes. Format: biochemical. As for the experimental part: The activated p38 is then diluted 1:6 with assay buffer, and 20 μl mixed with 25 μl of MBP mix (300 μl 10×strength assay buffer, 300 μl of 10 mM DTT & 10 mM sodium orthovanadate, 1.7 ml H2O, 50 μCi γ^33P-ATP, 200 μl of myelin basic protein (MBP) (5 mg/ml)) and added to 96 well plates along with 5 μl of various dilutions of the test compound in DMSO (up to 10%). The reaction is allowed to proceed for 50 minutes before being stopped with an excess of ortho-phosphoric acid (30 μl at 2%).
p38 MAP kinase, sequence (Q16539 whole entry): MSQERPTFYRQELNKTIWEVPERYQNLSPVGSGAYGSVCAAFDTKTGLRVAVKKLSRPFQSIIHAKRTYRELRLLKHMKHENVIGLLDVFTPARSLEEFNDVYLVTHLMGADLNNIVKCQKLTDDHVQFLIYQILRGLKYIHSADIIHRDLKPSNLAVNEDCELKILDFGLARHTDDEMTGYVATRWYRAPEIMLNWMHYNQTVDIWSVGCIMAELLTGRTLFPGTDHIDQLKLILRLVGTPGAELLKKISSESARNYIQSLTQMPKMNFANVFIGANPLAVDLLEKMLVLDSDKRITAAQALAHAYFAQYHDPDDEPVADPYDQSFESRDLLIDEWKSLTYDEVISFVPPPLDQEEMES
γ^33P-ATP which remains unincorporated into the myelin basic protein is separated from phosphorylated MBP on a Millipore MAPH filter plate. The wells of the MAPH plate are wetted with 0.5% orthophosphoric acid, and then the results of the reaction are filtered with a Millipore vacuum filtration unit through the wells. Following filtration, the residue is washed twice with 200 μl of 0.5% orthophosphoric acid. Once the filters have dried, 25 μl of Microscint 20 scintillant is added, and then counted on a Packard Topcount for 30 seconds.
Compound `Nc1ncccc1OCc1ccccc1-c1ccccc1` [Compound 2] came in with an IC50 of less than 10 µM. Next, `COc1ccccc1COc1cccnc1N` [Compound 6, 2-amino-3-(2-methoxybenzyloxy)pyridine]: less than 1000 µM; `Nc1ncccc1OCc1cccc(Cl)c1` [Compound 9, 2-amino-3-(3-chlorobenzyloxy)pyridine]: less than 1000 µM. In turn, `Clc1ncccc1OCc1ccccc1` [Compound 10, 3-Benzyloxy-2-chloropyridine] showed an IC50 of less than 2000 µM. Next, `c1cncc(OCc2cccc3ccccc23)c1` [Compound 11, 3-(1-Naphthylmethyloxy)pyridine]: less than 1000 µM.

For `Nc1ncccc1OCc1ccc(F)cc1F` [Compound 13, 2-amino-3-(2,4-difluorobenzyloxy)pyridine], the IC50 was less than 1000 µM. Next, `Nc1ncccc1OCc1ccc(F)c(F)c1` [Compound 14, 2-amino-3-(3,4-difluorobenzyloxy)pyridine]: less than 1000 µM.

For `Nc1ncccc1OCc1ccc(Cl)cc1Cl` [Compound 15, 2-amino-3-(2,4-dichlorobenzyloxy)pyridine], the IC50 was less than 1000 µM. With `Nc1ncccc1OCc1ccc(Cl)c(F)c1` [Compound 16, 2-amino-3-(4-chloro-3-fluorobenzyloxy)pyridine] the figure was less than 200 µM; with `Nc1ncccc1OCc1cc2c(cc1Cl)OCO2` [Compound 18, 2-amino-3-(2-chloro-4,5-(methylenedioxy)benzyloxy)pyridine], less than 1000 µM; with `Cc1cc(C)cc(COc2cccnc2N)c1` [Compound 19], less than 200 µM.

For `Nc1ncccc1OCc1cccc(-c2ccccc2)c1` [Compound 20], the IC50 is less than 200 µM. `Nc1ncccc1OCc1c(F)cccc1Cl` [Compound 22] returned an IC50 of less than 1000 µM.

For `Nc1ncccc1OCc1ccccc1C(F)(F)F` [Compound 23], the IC50 was less than 100 µM. With `Nc1ncccc1OCc1cccc(OC(F)(F)F)c1` [Compound 24] the figure was less than 10000 µM.

Take `Nc1ncccc1OCc1ccccc1CS(=O)(=O)c1ccccc1` [Compound 25]: the IC50 was less than 1000 µM. Next, `Nc1ncccc1OCc1cccc(Cl)c1F` [Compound 27]: less than 1000 µM; `Cc1cccc(COc2cccnc2N)c1F` [Compound 28]: less than 1000 µM. `Cc1ccc2ccccc2c1COc1cccnc1N` [Compound 30] came in with an IC50 of less than 100 µM. Next, `Nc1ncccc1OCc1ccc(F)cc1Cl` [Compound 31]: less than 1000 µM. Next, `Nc1ncccc1OCc1c(F)cc(F)cc1F` [Compound 32]: less than 1000 µM; `Nc1ncccc1OCc1cccc(C(=O)NCc2cccc3ccccc23)c1` [Compound 33]: less than 1000 µM. In turn, `Nc1ncccc1OCc1cccc(C(=O)NCC2CC2)c1` [Compound 34] came in with an IC50 of less than 1000 µM. With `Nc1ncccc1OCn1nnc2ccccc21` [Compound 37] the figure was less than 1000 µM; with `Nc1ncccc1OCc1csc2ccccc12` [Compound 40], less than 1000 µM. Compound `Nc1ccc(Cl)c(COc2cccnc2)c1` [Compound 41] had a concentration for half-maximal inhibition (IC50) of less than 1000 µM. As to `CC(=O)Nc1ccc(Cl)c(COc2cccnc2)c1` [Compound 43], the IC50 was less than 1000 µM. Take `O=C(Nc1ccc(Cl)c(COc2cccnc2)c1)c1ccnc(N2CCOCC2)c1` [Compound 44, N-[4-Chloro-3-(pyridin-3-yloxymethyl)-phenyl]-2-morpholin-4-yl-isonicotinamide]: the half-inhibitory concentration (IC50) is less than 2 µM.

`OCCNc1ccc(OCc2ccccc2)cn1` [Compound 45] displayed an IC50 of less than 200 µM. The compound `Nc1ccncc1OCc1cccc2ccccc12` [Compound 46] yielded a concentration for half-maximal inhibition (IC50) of less than 1000 µM. Next, `Nc1ncccc1OCc1cccc2ccoc12` [Compound 47]: less than 1000 µM; `O=C(Nc1ccc(Cl)c(COc2cccnc2)c1)c1cccc(F)c1` [Compound 50, N-[4-Chloro-3-(pyridin-3-yloxymethyl)-phenyl]-3-fluoro-benzamide]: less than 200 µM; `Clc1cccc(Cl)c1COc1ccc(NCc2ccccc2)nc1` [Compound 51]: less than 200 µM. With `O=C(Nc1ccc(Cl)c(COc2cccnc2)c1)c1ccccc1` [Compound 52, N-[4-Chloro-3-(pyridin-3-yloxymethyl)-phenyl]-benzamide] the figure was less than 20 µM. With `O=C(Nc1ccc(Cl)c(COc2cccnc2)c1)c1ccncc1` [Compound 53, N-[4-Chloro-3-(pyridin-3-yloxymethyl)-phenyl]-isonicotinamide] the figure was less than 200 µM; with `Clc1cccc(Cl)c1COc1ccc(N2CCOCC2)nc1` [Compound 54], less than 1000 µM; with `O=S(=O)(Nc1ccc(Cl)c(COc2cccnc2)c1)c1ccccc1` [Compound 55, N-(4-Chloro-3-(pyridin-3-yloxymethyl)-phenyl]-benzenesulfonamide], less than 200 µM.

In turn, `O=S(=O)(c1ccccc1)N(c1ccc(Cl)c(COc2cccnc2)c1)S(=O)(=O)c1ccccc1` [Compound 56, N-[4-Chloro-3-(pyridin-3-yloxymethyl)-phenyl]-bisbenzenesulfonamide] had an IC50 of less than 1000 µM. With `Nc1ncccc1OCc1cc(NC(=O)c2ccccc2)ccc1Cl` [Compound 57, N-[3-(2-Amino-pyridin-3-yloxymethyl)-4-chloro-phenyl]-benzamide] the figure was less than 20 µM; with `c1cc(COc2cccnc2)cc(COc2cccnc2)c1` [Compound 58], less than 1000 µM. Turning to `O=C(Nc1ccc(F)c(COc2cccnc2)c1)c1ccccc1` [Compound 59, N-[4-Fluoro-3-(pyridin-3-yloxymethyl)-phenyl]-benzamide], the IC50 was less than 200 µM. `O=C(Nc1ccc(F)c(COc2cccnc2)c1)c1cccc(F)c1` [Compound 60, 3-Fluoro-N-[4-fluoro-3-(pyridin-3-yloxymethyl)-phenyl]-benzamide]: the IC50 is less than 200 µM. In the case of `O=C(Nc1ccccc1)Nc1ccc(Cl)c(COc2cccnc2)c1` [Compound 61, 1-[4-Chloro-3-(pyridin-3-yloxymethyl)-phenyl]-3-phenyl-urea], the IC50 was less than 20 µM.

Regarding `O=C(Nc1ccc(F)c(COc2cccnc2)c1)c1cc(F)cc(N2CCOCC2)c1` [Compound 62, 3-Fluoro-N-[4-fluoro-3-(pyridin-3-yloxymethyl)-phenyl]-5-morpholin-4-yl-benzamide], the IC50 was less than 2 µM.

In turn, `NC(=O)Nc1ccc(Cl)c(COc2cccnc2)c1` [Compound 63, [4-Chloro-3-(pyridin-3-yloxymethyl)-phenyl]-urea] displayed an IC50 of less than 20 µM. With `CC(C)(C)c1cc(NC(=O)Nc2ccc(Cl)c(COc3cccnc3)c2)n(-c2ccccc2)n1` [Compound 64, 1-(5-tert-Butyl-2-phenyl-2H-pyrazol-3-yl)-3-[4-chloro-3-(pyridin-3-yloxymethyl)-phenyl]-urea] the figure was less than 2 µM.

Compound `CC(C)(C)c1cccc(C(=O)Nc2ccc(Cl)c(COc3cccnc3)c2)c1` [Compound 65, 3-tert-Butyl-N-[4-chloro-3-(pyridin-3-yloxymethyl)-phenyl]-benzamide] displayed an IC50 of less than 2 µM. Next, `O=C(Nc1cccc(COc2cccnc2)c1)c1ccccc1` [Compound 66, N-[3-(Pyridin-3-yloxymethyl)-phenyl]-benzamide]: less than 200 µM; `O=C(Nc1cccc(COc2cccnc2)c1)c1cc(F)cc(N2CCOCC2)c1` [Compound 67, 3-Fluoro-5-morpholin-4-yl-N-[3-(pyridin-3-yloxymethyl)-phenyl]-benzamide]: less than 20 µM; `O=C1c2ccccc2C(=O)N1c1ccc(Cl)c(COc2cccnc2)c1` [Compound 68, 2-[4-Chloro-3-(pyridin-3-yloxymethyl)-phenyl]-isoindole-1,3-dione]: less than 1000 µM. `O=C(Nc1ccc(Cl)c(COc2cccnc2)c1)c1cccc(C(F)(F)F)c1` [Compound 69, N-[4-Chloro-3-(pyridin-3-yloxymethyl)-phenyl]-3-trifluoromethyl-benzamide]: the IC50 is less than 20 µM.

As to `O=C(Nc1ccc(Cl)c(COc2cccnc2)c1)c1cccc(Cl)c1` [Compound 70, 3-Chloro-N-[4-chloro-3-(pyridin-3-yloxymethyl)-phenyl]-benzamide], the IC50 was less than 20 µM. With `O=C1c2ccccc2C(O)N1c1ccc(Cl)c(COc2cccnc2)c1` (stereo not shown) [Compound 73] the figure was less than 200 µM; with `O=C(Nc1ccc(F)c(COc2cccnc2)c1)c1cncc(N2CCOCC2)n1` [Compound 75, 6-Morpholin-4-yl-pyrazine-2-carboxylic acid [4-fluoro-3-(pyridin-3-yloxymethyl)-phenyl]-amide], less than 20 µM; with `O=C(Nc1ccc(Cl)c(COc2ccc(NCc3ccccc3)nc2)c1)c1cc(F)cc(N2CCOCC2)c1` [Compound 77, N-[3-(6-Benzylamino-pyridin-3-yloxymethyl)-4-chloro-phenyl]-3-fluoro-5-morpholin-4-yl-benzamide], less than 2 µM. Next, `CC(C)(C)c1ccccc1NC(=O)Nc1ccc(F)c(COc2cccnc2)c1` [Compound 78, 1-(2-tert-Butyl-phenyl)-3-[4-fluoro-3-(pyridin-3-yloxymethyl)-phenyl]-urea]: less than 20 µM; `O=C(Nc1ccc(Cl)c(COc2cccnc2)c1)Oc1ccccc1` [Compound 79, [4-Chloro-3-(pyridin-3-yloxymethyl)-phenyl]-carbamic acid phenyl ester]: less than 20 µM. Next, `O=C1c2ccccc2CN1c1ccc(F)c(COc2cccnc2)c1` [Compound 80]: less than 1000 µM.
